Assay: High Throughput Experimentation (HTE) solubility screen, solvent/heptane mixtures for crystallization
Format: physicochemical
Conditions: 20° C., 2-MeTHF
Protocol: A High Throughput Experimentation (HTE) solubility screen was conducted to determine the solvent/anti-solvent combination for the crystallization and align the reaction solvent with the crystallization solvent. Solubility studies of t-Butyl Core at 20° C. were conducted for various percentages of heptane. […] The solubility screen pointed to MTBE/heptane being one example of a useful solvent mixture for crystallization because of its gradual solubility curve.

With `CC(C)(C)OC(=O)CC[C@H](NC(=O)CC[C@H](NC(=O)OCc1ccccc1)C(=O)OC(C)(C)C)C(=O)OC(C)(C)C` [t-Butyl Core] the “solubility of t-Butyl Core” value (MIBK or IPAc with 80% heptane) was 50 mg/mL and the “solubility of t-Butyl Core” value (MIBK or IPAc with 90% heptane) was 10 mg/mL.

— US20250289842A1, “Processes for Making NAG-25, a Carbohydrate Targeting Moiety, and its Intermediates” (AMGEN INC., priority 2022, published 2025)
